We go through 7 compounds from patent US5273986A, “Cycloalkylthiazoles” (Hoffmann-La Roche Inc., priority 1992, dated 1993).

Molecules are shown by their SMILES. Where two headings read alike, the source gives them in different places.

Assay [1] concerns LTD4-induced bronchoconstriction. The experiment in a line: Antagonism of LTD4-induced bronchoconstriction in guinea pigs. It counts as in vivo, guinea pig (male, Hartley strain). The settings on record: for ED50 / inhibition in vivo at 1 mg/kg: Cavia porcellus; for inhibition in vivo at 1 mg/kg: read-out: percent inhibition at 1 mg/kg p.o., LTD4-induced bronchoconstriction (ID50 not determined). The protocol: Male guinea pigs (Hartley strain, Charles River) weighing 400-600 g were anesthetized with urethane (2 g/kg) intraperitoneally, and a polyethylene cannula was inserted into the jugular vein for intravenous drug administration. Tracheal pressure (cm of H2 O) was recorded from a Statham pressure transducer (P 32 AA). Propranolol was administered 5 minutes prior to challenge with LTD4. Two minutes later spontaneous breathing was arrested with succinylcholine chloride (1.2 mg/kg) administered intravenously, and the animals were ventilated with a Harvard (Model 680) small animal respirator set at 40 breaths/min and a 4.0 cc stroke volume. Control vehicle (DMSO) or test compound was administered through the cannula into the jugular vein 1 minute before the animals were challenged with a maximum constrictory dose of LTD4 ([…] I.V.) given intravenously. The change in tracheal pressure was averaged for control and drug-treated animals and percent inhibition was calculated. For determination of oral activity, animals were dosed with test compound or vehicle (PEG400) two hours prior to challenge with LTD4 ([…], i.v.).
The relative potency of test compounds administered by the intravenous and oral route was determined by administering increasing doses of test compound at a fixed pretreatment time. The median inhibitory dose (ID50 value) was determined by linear regression of log dose-responsecurves generated by at least 3 doses that caused statistically significant inhibition between 10 and 90%. The correlation coefficient for the regression line was always greater than 0.95. For determination of the time-course of inhibition for various compounds, the time between administration of compound and challenge with LTD4 was varied. Durations of action were defined as the time for inhibitory activity to decrease to 50%.

Assay [2] addresses T1, LTD4 receptor (Cavia porcellus, UniProt Q2NNR5).
T1 construct: A lung homogenate was prepared from guinea pig lung membranes; from tissue; host or cells: guinea pig lung membranes
T1 sequence (Q2NNR5 1-340): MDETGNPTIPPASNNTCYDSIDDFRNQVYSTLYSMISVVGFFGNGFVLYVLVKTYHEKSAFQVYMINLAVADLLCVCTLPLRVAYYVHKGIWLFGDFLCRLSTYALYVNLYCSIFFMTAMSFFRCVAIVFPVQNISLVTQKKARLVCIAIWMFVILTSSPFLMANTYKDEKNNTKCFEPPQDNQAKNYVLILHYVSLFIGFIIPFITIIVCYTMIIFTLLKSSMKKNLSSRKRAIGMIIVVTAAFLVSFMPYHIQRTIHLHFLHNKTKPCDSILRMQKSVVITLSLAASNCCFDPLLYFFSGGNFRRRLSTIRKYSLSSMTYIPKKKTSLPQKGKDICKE
Description: LTD4 receptor ligand binding assay (inhibition of [3H]LTD4 specific binding, guinea pig lung membranes). To be noted: 20° C., 30 min. The protocol:
A lung homogenate was prepared from guinea pig lung membranes and was resuspended in buffer containing 10 mM Tris.HCl (pH 7.5) (Hogaboom et al., Hogaboom, G. K., et al: Peptidoleukotrienes: distinct receptors for leukotriene C4 and D4 in the guinea pig lung. Biochem. Biophys. Res. Commun. 116: 1136-1143, 1983). Optimum assay conditions were determined with an assay mixture containing: 10 mM Tris.HCl (pH 7.5); 0.1% bovine serum albumin (BSA); 1 mM glycine; 1 mM cysteine; 3.5 nM [^3 H]LTD4 and the membrane preparation ([…] protein) in a final volume of […]. The incubation was carried out at 20° C. for 30 minutes. At 20° C., binding increased linearly with protein concentration, reached equilibrium in 20 minutes, was saturable, and was reversible upon addition of 1 mM unlabelled LTD4. Separation of bound from free [^3 H]LTD4 as performed by rapid filtration on GF/C glass fiber filters (Whatman International Ltd., Maidstone, England) and washing with two 4-ml aliquots of Tyrode solution (0.9 g/100 ml NaCl; 0.02 g/100 ml KCl; 0.02 g/100 ml CaCl2; 0.01 g/100 ml MgCl2; 0.1 g/100 ml glucose; 0.1 g/100 ml NaHCO3; 0.005 g/100 ml NaH2 PO4) containing 0.1% BSA. Radioactivity remaining on the filters was measured in 10 ml of Aquasol. Specific binding, was defined as that displaced by 1 mM unlabelled LTD4, and was 95% of total binding.
The inhibition of [^3 H]LTD4 specific binding by an antagonist is related to the LTD4 content of that sample by regression analysis from a "standard curve" of the inhibition of [^3 H]LTD4 specific binding by nonlabeled LTD4. The median inhibitory concentration (IC50 value) was determined by linear regression of log concentration-response curves generated by at least 3 concentrations that caused statistically significant inhibition between 10 and 90%. Results are expressed as mean±S. E. M. (standard error of the mean) of n independent experiments (separate receptor batches) conducted in duplicates.

Setting [3] is: iv, 1 min, I.V., compound 1 minute before LTD4 challenge, read-out: ID50 I.V., LTD4-induced bronchoconstriction.
Setting [4] is: po, 2 h, p.o., compound two hours prior to LTD4 challenge, read-out: ID50 p.o., LTD4-induced bronchoconstriction.
Where [5] appears, read: po, 2 h, p.o., 1 mg/kg, compound two hours prior to LTD4 challenge.

Consider `CC(C)c1csc(/C=C/c2cccc(NC(=O)Cc3ccccc3C(=O)O)c2)n1` [Example 1, (E)-2-[2-[3-[2-[4-(1-Methylethyl)-2-thiazolyl]ethenyl]phenylamino]-2-oxoethyl]benzoic acid], for which the ED50 in assay [1] (setting [3]) was 0.008 mg/kg; in assay [1] (setting [4]), 0.5 mg/kg. Moreover, the IC50 (commonly the concentration needed to halve the response being measured) in assay [2] was 0.004 µM.

For `O=C(O)Cc1ccccc1CC(=O)Nc1cccc(/C=C/c2nc(C3CCC3)cs2)c1` [Example 13, (E)-2-[2-[3-[2-[4-(cyclobutyl)-2-thiazolyl]ethenyl]phenylamino]-2-oxoethyl]benzeneacetic acid], the ED50 in assay [1] (setting [3]) turned out to be 0.01 mg/kg; in assay [1] (setting [4]), 0.78 mg/kg. Besides, the IC50 in assay [2] came to 1 µM.

On to `O=C(Cc1ccccc1C(=O)O)Nc1cccc(/C=C/c2nc(C3CCC3)cs2)c1` [Example 3, (E)-2-[2-[3-[2-[4-(Cyclobutyl)-2-thiazolyl]ethenyl]phenylamino]-2-oxoethyl]benzoic acid], for which the ED50 in assay [1] (setting [3]) was found to be 0.01 mg/kg; in assay [1] (setting [4]), 0.22 mg/kg. The same compound yielded an IC50 in assay [2] of 0.003 µM.

Regarding `CC(C)c1csc(/C=C/c2cccc(NC(=O)Cc3ccccc3CC(=O)O)c2)n1` [Example 14, (E)-2-[2-[3-[2-[4-(1-Methylethyl)-2-thiazolyl]ethenyl]phenylamino]-2-oxoethyl]benzene acetic acid], the ED50 in assay [1] (setting [3]) was 0.05 mg/kg. In addition, in assay [1] (setting [5]), the inhibition in vivo at 1 mg/kg stood at 41 ± 8%. The compound further displayed an IC50 in assay [2] of 1 µM.

On to `CC(C)c1csc(/C=C/c2cccc(NC(=O)Cc3cccc(CC(=O)O)c3)c2)n1` [Example 15, (E)-3-[2-[3-[2-[4-(1-Methylethyl)-2-thiazolyl]ethenyl]phenylamino]-2-oxoethyl]phenylacetic acid], for which the “percent inhibition at 1 mg/kg I.V., LTD4-induced bronchoconstriction (ID50 not determined)” value in assay [1] (I.V., 1 mg/kg, compound 1 minute before LTD4 challenge) came out at 40 ± 7%. Also, the IC50 in assay [2] amounted to 1 µM.

Turning to `CC(C)c1csc(/C=C/c2cc(NC(=O)Cc3ccccc3C(=O)O)ccc2Cl)n1` [Example 17e, (E)-2-[2-[4-Chloro-3-[2-[4-(1-methylethyl)-2-thiazolyl]ethenyl]phenylamino]-2-oxoethyl]benzoic acid], in assay [1] (setting [3]), the ED50 turned out to be 0.28 mg/kg. Further, in assay [1] (setting [5]), the inhibition in vivo at 1 mg/kg worked out at 26 ± 7%. In assay [2], this compound came in with an IC50 of 0.9 µM.

In the case of `O=C(Cc1ccccc1C(=O)O)Nc1cccc(/C=C/c2nc(C3CC3)cs2)c1` [Example 2, (E)-2-[2-[3-[2-[4-(Cyclopropyl)-2-thiazolyl]ethenyl]phenylamino]-2-oxoethyl]benzoic acid], the ED50 in assay [1] (setting [3]) stood at 0.01 mg/kg; in assay [1] (setting [4]), 0.22 mg/kg. The IC50 in assay [2] was found to be 0.003 µM.
